The source of these data is PubChem BioAssay (NCI).

Common to all, as to test: inhibition of tumour cell growth, NCI panel, 48 h
Experiment [1] deals with HS 578T breast.
Experiment [2] deals with K-562 leukemia.
Experiment [3] concerns OVCAR-3 ovarian.
Experiment [4] relates to RPMI-8226 leukemia.
Experiment [5] relates to SF-268 CNS.
The subject of experiment [6] is SK-MEL-2 melanoma.
Experiment [7] deals with SK-MEL-28 melanoma.
Experiment [8] has as its system SW-620 colon.
Experiment [9] relates to T-47D breast.
Experiment [10] relates to UACC-257 melanoma.

Where “and” joins values, the source holds several entries; their conditions need not be identical. Equal entries are not always repeated.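 Results reflect a 48-hour exposure of cells in 96-well plates to compound at five concentrations. Here, GI50 denotes the concentration required for 50% inhibition of growth. At the TGI there is no net growth.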

Regarding `O=C1NC(=NCc2ccccc2Cl)S/C1=C\c1ccc2ncccc2c1`, the GI50 is greater than 9.99 µM in experiment [1]; 12.7 µM in experiment [2]; 17.6 µM in experiment [3]; 17 µM in experiment [4]; 18.9 µM in [5]; 8.5 µM in experiment [6]. Moreover, the GI50 in experiment [7] was greater than 25 µM; in experiment [8] it was 6.61 µM; in [9], greater than 25 µM; in experiment [10], greater than 25 µM. Also, the TGI was greater than 19.4 µM in experiment [1]; greater than 25 µM in experiment [2]; greater than 25 µM in [3]; greater than 25 µM in experiment [4]; greater than 25 µM in [5]; greater than 22.3 µM in [6]. Also, the TGI in experiment [7], in [8], in experiment [9] and in experiment [10] was greater than 25 µM in each case.
On to `COc1cc(-c2cc(/C=C/C(=O)c3ccc(F)c(F)c3)[nH]n2)cc(OC)c1OC`, for which the GI50 was 3.58 µM in experiment [1]; 3.31 µM in experiment [2]; 2.39 µM in [3]; 1.76 µM in experiment [4]; 3.15 µM in experiment [5]; 2.3 µM in [6]. The GI50 is 5.31 µM in [7], 3.42 µM in experiment [8], 2.45 µM in [9] and 1.75 µM in experiment [10]. For the same compound, the TGI in [1] is 36.8 µM; in experiment [2] it was 16.5 µM; in experiment [3], 6.25 µM; in experiment [4], 6 µM; in [5], greater than 100 µM; in [6], 5.89 µM. For the same compound, the TGI was 28.2 µM in experiment [7], greater than 100 µM in experiment [8], 27 µM in experiment [9] and 6.28 µM in experiment [10].
On to `Cc1cc(=O)oc2ccc(OC/C=C3\CCC(=O)O3)cc12`, for which the GI50 was 10.8 µM in experiment [1]; 7.79 µM in experiment [2]; 3.59 µM in experiment [3]; 1.81 µM in [4]; 13.2 µM in experiment [5]; 10.7 µM in experiment [6]. The GI50 is 11.3 µM in experiment [7], 3.87 µM in experiment [8], 2.6 µM in [9] and 12.3 µM in [10]. Besides, the TGI was 48.9 µM in experiment [1]; greater than 100 µM in experiment [2]; 18.4 µM in experiment [3]; 11.2 µM in experiment [4]; 43.6 µM in experiment [5]; 30.6 µM in [6]. Moreover, the TGI was 23.5 µM in experiment [7], 17.5 µM in experiment [8], 19.6 µM in experiment [9] and 28.7 µM in [10].
As for `C=C1C[C@H]2C=Nc3cc(OCCCOc4cc5c(cc4OC)C(=O)N4CC(=C)C[C@H]4C=N5)c(OC)cc3C(=O)N2C1`, the TGI was greater than 100 µM in experiment [1]; 3.44 µM in experiment [2]; 0.2 µM in [3]; 0.00904 µM and 0.0252 µM in [4]; 0.0347 µM and < 0.0282 µM in experiment [6]; 0.0436 µM in [7]. Moreover, the TGI in experiment [8] was greater than 85.2 µM; in experiment [9], 3.53 µM; in experiment [10] it was 0.0421 µM and 0.0917 µM. Also, the GI50 in experiment [4] was 0.000136 µM; in [6] it was 0.0168 µM and < 0.0128 µM; in [8], 0.0144 µM; in experiment [9], 0.0244 µM; in experiment [10], 0.0213 µM.
As to `NC(N)=N/N=C/c1c(-c2ccsc2)nc2n1CCS2`, the GI50 in experiment [1] was 34.9 µM; in experiment [2] it was 22.2 µM; in experiment [3], 0.365 µM; in experiment [4], 31.9 µM; in experiment [5], 18.4 µM; in experiment [6] it was 51.9 µM. For the same compound, the GI50 is 33.2 µM in [8], 30 µM in experiment [9] and 20.8 µM in experiment [10]. In addition, the TGI was greater than 100 µM in [1]; 65.8 µM in [2]; 24.1 µM in experiment [3]; greater than 100 µM in experiment [4]; 82.2 µM in experiment [5]; greater than 100 µM in experiment [6]. Further, the results for the TGI in [8], in experiment [9] and in experiment [10] were greater than 100 µM, 66.3 µM and 53.1 µM, respectively.
On to `CCN(CC)c1ccc(/C=C/C(=O)c2ccc(Nc3nc(Nc4ccccc4)nc(Nc4ccccc4)n3)cc2)cc1`, for which the GI50 was 4.04 µM in experiment [1]; 2.12 µM in [3]; 3.26 µM in experiment [4]; 8.51 µM in [5]; 4.04 µM in experiment [6]; 19.8 µM in [7]. Further, the GI50 is 31.2 µM in [8], 2.65 µM in [9] and 20.4 µM in experiment [10]. The TGI was 69.5 µM in experiment [1]; 20 µM in [3]; greater than 100 µM in experiment [4]; 47.2 µM in experiment [5]; 85.2 µM in experiment [6]; greater than 100 µM in experiment [7]. The TGI in [8] was greater than 100 µM; in experiment [9] it was 41 µM; in experiment [10], greater than 100 µM.
Consider `O=C1Nc2ccc(Br)cc2C12CC(c1ccccc1)=NN2` (configuration not stated), for which the GI50 in [2] was 2.84 µM; in [3], 3.26 µM; in experiment [4], 3.07 µM; in experiment [5], 9.25 µM; in [6], 4.48 µM; in experiment [7], 7.48 µM. For the same compound, the results for the GI50 in experiment [8], in experiment [9] and in experiment [10] were 3.87 µM, 5.48 µM and 5.98 µM, respectively. The TGI in experiment [2] was 31 µM; in experiment [3] it was 13.9 µM; in [4], 12.2 µM; in experiment [5], greater than 100 µM; in experiment [6], 25.6 µM; in experiment [7], greater than 100 µM. Also, the TGI in experiment [8] is 23.8 µM; in experiment [9] it was greater than 100 µM; in experiment [10] it was greater than 100 µM.
`Cn1cc(/C=C\[N+](=O)[O-])c2ccccc21`: the GI50 was 19.8 µM in experiment [1]; 34.8 µM in experiment [2]; 28.1 µM in experiment [3]; 16.1 µM in experiment [4]; greater than 100 µM in experiment [5]; greater than 100 µM in experiment [6]. Also, the GI50 in experiment [7] was 23.3 µM; in experiment [9], 55.6 µM; in experiment [10], 33.1 µM. The TGI was 50.5 µM in [1]; greater than 100 µM in experiment [2]; greater than 100 µM in experiment [3]; 53.4 µM in experiment [4]; greater than 100 µM in [5]; greater than 100 µM in experiment [6]. Moreover, the TGI in experiment [7] was 50.3 µM; in experiment [9], greater than 100 µM; in experiment [10] it was greater than 100 µM.
Take `CCOC(=O)CSc1cc(Cl)c(C)cc1S(=O)(=O)/N=C(/N=C/c1ccc([N+](=O)[O-])s1)NNC`: the GI50 was 28 µM in [1]; 10.3 µM in experiment [3]; 36.7 µM in [4]; 29.8 µM in experiment [5]; 31 µM in experiment [6]; 16.1 µM in [7]. Besides, the GI50 in experiment [8] is 31.1 µM; in [9], 12.5 µM; in experiment [10], 28.7 µM. The TGI in [1] is 76.7 µM; in experiment [3], 24.7 µM; in [4], greater than 100 µM; in experiment [5] it was greater than 100 µM; in [6], 59.1 µM; in experiment [7], 29.7 µM. The results for the TGI in experiment [8], in [9] and in experiment [10] were greater than 100 µM, 40.1 µM and 67.2 µM, respectively.
As for `Cc1ccc(CNc2ccc(Br)cc2)cc1`, the TGI in experiment [1] is greater than 100 µM; in experiment [2], greater than 100 µM; in [3] it was greater than 100 µM; in experiment [4], 17.5 µM; in [5] it was greater than 100 µM; in [7] it was greater than 100 µM. The TGI in experiment [8], in [9] and in experiment [10] was greater than 100 µM throughout.
`COc1cc(/C=C/C(=O)c2cccc(-n3cc(-c4cc(OC)c(OC)c(OC)c4)[nH]c3=O)c2)cc(OC)c1OC`: the GI50 was greater than 100 µM in experiment [1]; 0.591 µM in experiment [2]; 1.48 µM in experiment [3]; 0.238 µM in experiment [4]; 2.2 µM in experiment [5]; 3.02 µM in experiment [6]. The GI50 in experiment [7] is 1.61 µM; in experiment [9], 3.08 µM; in [10] it was 2.22 µM. The TGI is greater than 100 µM in [1]; greater than 100 µM in experiment [2]; 4.32 µM in [3]; 0.733 µM in experiment [4]; 7.47 µM in experiment [5]; 7.63 µM in experiment [6]. Besides, the TGI in [7] turned out to be 3.39 µM; in experiment [9], 22.8 µM; in [10] it was 5.45 µM.
Take `COc1ccc(-c2cc(=O)c3c(O)c(OC)c(OC)c(OC)c3o2)cc1OC`: the TGI in experiment [1] was 81.8 µM; in [2], greater than 100 µM; in [3], greater than 100 µM; in experiment [5] it was 51.6 µM; in [6] it was greater than 100 µM; in experiment [7], greater than 100 µM. The TGI in [9] and in [10] was greater than 100 µM in each case.
Turning to `CC(C)(C)c1cc(C(=O)Nc2ccccc2C(=O)NCCN)cc(C(C)(C)C)c1`, the GI50 was 2.07 µM in [1]; 2.23 µM in experiment [2]; 1.89 µM in [3]; 1.86 µM in [5]; 1.94 µM in [6]; 1.91 µM in experiment [7]. The figures for the GI50 in experiment [8], in experiment [9] and in experiment [10] were 1.87 µM, 1.76 µM and 1.9 µM, respectively. The TGI in [1] was found to be 4.63 µM; in experiment [2], 5.33 µM; in experiment [3], 3.46 µM; in experiment [5] it was 3.62 µM; in experiment [6], 3.7 µM; in [7], 3.64 µM. The TGI in [8] was determined as 3.87 µM; in experiment [9], 3.51 µM; in experiment [10] it was 3.93 µM.
